Data from patent US6743440B1, “Polycyclic quinone and ionophore composition for the synergistic reduction of methane formation in ruminant animals” (Arkion Life Sciences LLC, priority 1999, dated 2004).
Marks after values point to notes of the source that are not given here.

Tested on: rumen fluid
Assay: in vitro batch culture ruminal fermentation
Type: cell-based, steer
Conditions: for decrease of methane production compared to the control diet: dose effect experiment; for Hydrogen / Methane / NH3—N / TVFA (total volatile fatty acids) / Total Gas / VFA C2 (acetate) / VFA C3 (propionate) / VFA C4 (butyrate) / VFA C5 (valerate) / VFA Ci4 (isobutyrate) / VFA Ci5 (isovalerate): high sulfur diet (1.09% S), 24 h, MoO4 25 ppm, M 5 ppm, M + AQ 5 + 10 ppm
[1] = AQ 10 ppm, Ionophores 5 ppm, AQ plus Ionophore 10 + 5 ppm
[2] = intermediate and high levels of 9,10 AQ, P<0.05

SMILES | Methane Concentration [1] [Umole/24 hr. fermentation] | Hydrogen (AQ 10 ppm) | Methane (AQ 10 ppm) | NH3—N (AQ 10 ppm) | TVFA (total volatile fatty acids) (AQ 10 ppm) | Total Gas (AQ 10 ppm) | VFA C2 (acetate) (AQ 10 ppm) | VFA C3 (propionate) (AQ 10 ppm) | VFA C4 (butyrate) (AQ 10 ppm) | VFA C5 (valerate) (AQ 10 ppm) | VFA Ci4 (isobutyrate) (AQ 10 ppm) | VFA Ci5 (isovalerate) (AQ 10 ppm) | also measured
O=C1c2ccccc2C(=O)c2ccccc21 [AQ, 9,10-anthraquinone] | 265 | 4.27^ab μMoles/24 h fermentation | 265^b μMoles/24 h fermentation | 37.2^a mg/dl | 118.0^c mM | 89.2^cb mL/24 h fermentation | 48.4^d moles/100 mol | 28.1^b moles/100 mol | 17.3^a moles/100 mol | 3.3^b moles/100 mol | 1.2^ab moles/100 mol | 1.7^b moles/100 mol | Total VFA relative to the control and untreated high sulfur diet (9,10 AQ dose effect experiment): numerically but not statistically decreased; hydrogen concentration (9,10 AQ dose effect experiment): unaffected; decrease of methane production compared to the control diet (10 ppm 9,10 AQ): 21%; decrease of methane production compared to the control diet (25 ppm 9,10 AQ): 41%; activity at 10 ppm (AQ 10 ppm, Ionophores 5 ppm, AQ plus Ionophore 10 + 5 ppm, control = 403, read-out: Methane concentration, Percent of Control): 66%; ammonia-N (highest level of 9,10 AQ, P<0.05): decreased; percentages of C3, C4 and C5 (intermediate and high levels of 9,10 AQ): increased; molar proportion of C2 [2]: decreased; total gas produced [2]: decreased; effect on fermentation end-products compared to the untreated diets (low level of 9,10 AQ (1 ppm)): no effect
CC[C@@]1([C@H]2O[C@H]([C@H]3O[C@@](O)(CO)[C@H](C)C[C@@H]3C)C[C@H]2C)CC[C@H]([C@@]2(C)CC[C@]3(C[C@H](O)[C@@H](C)[C@@H]([C@H](C)[C@H](OC)[C@@H](C)C(=O)[O-])O3)O2)O1.[Na+] [M, monensin sodium] | 299 | 4.17^ab μMoles/24 h fermentation | 299^b μMoles/24 h fermentation | 36.0^a mg/dl | 117.5^c mM | 85.2^c mL/24 h fermentation | 52.4^c moles/100 mol | 28.0^b moles/100 mol | 13.6^d moles/100 mol | 3.0^c moles/100 mol | 1.3^ab moles/100 mol | 1.7^b moles/100 mol | Methane concentration, Percent of Control (AQ 10 ppm, Ionophores 5 ppm, AQ plus Ionophore 10 + 5 ppm, control = 403): 74%
[O]=[Mo](=[O])([O-])[O-] [MoO4] |  | 4.13^ab μMoles/24 h fermentation | 451^a μMoles/24 h fermentation | 37.9^a mg/dl | 123.9^b mM | 94.1^ab mL/24 h fermentation | 55.2^b moles/100 mol | 24.2^c moles/100 mol | 15.1^c moles/100 mol | 2.7^d moles/100 mol | 1.2^b moles/100 mol | 1.6^b moles/100 mol | 
